From patent US8399403B2, “Chemical linkers and conjugates thereof” (priority 2004, dated 2013)

Key:
[1] = Rate of cyclization of 6-membered hydrazine linker in buffer; type: physicochemical; conditions: incubated in buffer at pH 7.4, assessed over time
Description: A duocarmycin analog conjugated to a dimethyl 6-membered hydrazine linker was incubated in buffer at pH 7.4 for 24 hours and the generation of cyclized product resulting from cyclization of the hydrazine linker, thereby releasing free duocarmycin analog, was assessed over time.
A duocarmycin analog conjugated to a gem-dimethyl 6-membered hydrazine linker was incubated in buffer at pH 7.4 and the generation of cyclized product resulting from cyclization of the hydrazine linker, thereby releasing free duocarmycin analog, was assessed over time.

[2] = in vitro and in experimental animals; cited from earlier work
experimental animals = conditions: cited from earlier work

SMILES | generation of cyclized product resulting from cyclization of the hydrazine linker (release of free duocarmycin analog) [1] | antitumor and antimicrobial activity [2] | toxicity in experimental animals (experimental animals)
COC(=O)c1c(C)[nH]c2c(OC(=O)N(C)CC(=O)N(C)N)cc3c(c12)[C@H](CCl)CN3C(=O)c1cc2cc(OC)ccc2o1 | Minimal amounts of cyclized product were detected over 24 hours | – | –
COC(=O)c1c(C)[nH]c2c(OC(=O)N(C)C(C)(C)C(=O)N(C)N)cc3c(c12)[C@H](CCl)CN3C(=O)c1cc2cc(OC)ccc2o1 | proceeding to completion within a few minutes | – | –
COc1c(O)c2c(c3cc(C(=O)N4CCc5c4c(O)c(OC)c4[nH]c(C(=O)N6CC7CC78C6=CC(=O)c6[nH]cc(C)c68)cc54)[nH]c13)CCN2C(N)=O (stereo not shown) [CC-1065] | – | potent antitumor and antimicrobial activity | causes delayed death in experimental animals
